Results as given in PubChem BioAssay (NCI).
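Step 1: Grow cells in 96-well plates. Step 2: Expose to compound for 48 hours at 5 concentrations. Step 3: Interpolate endpoints linearly; if unreached, use highest concentration. Definition used: TGI = concentration required for complete inhibition of growth.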

What was measured:
Assay in all cases: DTP human tumour cell line panel, 48 h
[1] = test system: IGROV1 ovarian
[2] = test system: SK-MEL-5 melanoma
[3] = test system: K-562 leukemia
[4] = test system: PC-3 prostate
[5] = test system: HCC-2998 colon
[6] = test system: SN12C renal
[7] = test system: NCI-H226 lung
[8] = test system: OVCAR-3 ovarian
[9] = test system: TK-10 renal
[10] = test system: CAKI-1 renal
[11] = test system: UACC-257 melanoma
[12] = test system: ACHN renal
[13] = test system: MDA-MB-231 breast
[14] = test system: CCRF-CEM leukemia
[15] = test system: T-47D breast
[16] = test system: A498 renal
[17] = test system: A549 NSCLC
[18] = test system: NCI-H23 lung
[19] = test system: HCT-116 colon
[20] = test system: MCF7 breast
[21] = test system: U251 CNS
[22] = test system: SNB-19 CNS
[23] = test system: MDA-N
[24] = test system: EKVX NSCLC
[25] = test system: SF-268 CNS
[26] = test system: HT29 colon
[27] = test system: HS 578T breast
[28] = test system: HOP-62 NSCLC
[29] = test system: SF-539 CNS
[30] = test system: OVCAR-4 ovarian
[31] = test system: SF-295 CNS
[32] = test system: HOP-92 NSCLC
[33] = test system: SW-620 colon
[34] = test system: M14 melanoma
[35] = test system: SK-OV-3 ovarian
[36] = test system: HCT-15 colon
[37] = test system: MDA-MB-435
[38] = test system: OVCAR-8 ovarian
[39] = test system: UACC-62 melanoma
[40] = test system: NCI/ADR-RES ovarian
[41] = test system: SNB-75 CNS
[42] = test system: KM12 colon
[43] = test system: SR leukemia
[44] = test system: COLO 205 colon
[45] = test system: NCI-H522 lung
[46] = test system: RXF 393 renal
[47] = test system: 786-0 renal
[48] = test system: NCI-H460 lung
[49] = test system: UO-31 renal
[50] = test system: LOX IMVI melanoma
[51] = test system: DU-145 prostate
[52] = test system: SK-MEL-2 melanoma
[53] = test system: MOLT-4 leukemia
[54] = test system: HL-60(TB) leukemia
[55] = test system: BT-549 breast
[56] = test system: MALME-3M melanoma
[57] = test system: RPMI-8226 leukemia
[58] = test system: SK-MEL-28 melanoma
[59] = test system: OVCAR-5 ovarian

Structure (SMILES): OC1(c2ccccc2)CSc2ncnn21 (stereo unspecified)
- TGI [1]: > 100 µM
- TGI [2]: > 100 µM
- TGI [3]: > 100 µM
- TGI [4]: > 100 µM
- TGI [5]: > 100 µM
- TGI [6]: > 100 µM
- TGI [7]: > 100 µM
- TGI [8]: > 100 µM
- TGI [9]: > 100 µM
- TGI [10]: > 100 µM
- TGI [11]: > 100 µM
- TGI [12]: > 100 µM
- TGI [13]: > 100 µM
- TGI [14]: > 100 µM
- TGI [15]: > 100 µM
- TGI [16]: > 100 µM
- TGI [17]: > 100 µM
- TGI [18]: > 100 µM
- TGI [19]: > 100 µM
- TGI [20]: > 100 µM
- TGI [21]: > 100 µM
- TGI [22]: > 100 µM
- TGI [23]: > 100 µM
- TGI [24]: > 100 µM
- TGI [25]: > 100 µM
- TGI [26]: > 100 µM
- TGI [27]: > 100 µM
- TGI [28]: > 100 µM
- TGI [29]: > 100 µM
- TGI [30]: > 100 µM
- TGI [31]: > 100 µM
- TGI [32]: > 100 µM
- TGI [33]: > 100 µM
- TGI [34]: > 100 µM
- TGI [35]: > 100 µM
- TGI [36]: > 100 µM
- TGI [37]: > 100 µM
- TGI [38]: > 100 µM
- TGI [39]: > 100 µM
- TGI [40]: > 100 µM
- TGI [41]: > 100 µM
- TGI [42]: > 100 µM
- TGI [43]: > 100 µM
- TGI [44]: > 100 µM
- TGI [45]: > 100 µM
- TGI [46]: > 100 µM
- TGI [47]: > 100 µM
- TGI [48]: > 100 µM
- TGI [49]: > 100 µM
- TGI [50]: > 100 µM
- TGI [51]: > 100 µM
- TGI [52]: > 100 µM
- TGI [53]: > 100 µM
- TGI [54]: > 100 µM
- TGI [55]: > 100 µM
- TGI [56]: > 100 µM

Structure (SMILES): O=C(N/N=C\c1c(O)ccc2ccccc12)c1ccncc1
- TGI [1]: 1.84 µM
- TGI [2]: > 9.41 µM
- TGI [4]: > 25 µM
- TGI [5]: > 25 µM
- TGI [6]: > 5.5 µM
- TGI [7]: 2.67 µM
- TGI [8]: > 25 µM
- TGI [9]: > 25 µM
- TGI [10]: > 4.94 µM
- TGI [11]: > 25 µM
- TGI [12]: > 13.5 µM
- TGI [13]: > 5.71 µM
- TGI [57]: > 5.06 µM
- TGI [15]: > 25 µM
- TGI [58]: > 25 µM
- TGI [16]: > 15.6 µM
- TGI [17]: > 25 µM
- TGI [18]: > 25 µM
- TGI [19]: > 25 µM
- TGI [20]: > 7.75 µM
- TGI [21]: > 25 µM
- TGI [22]: > 25 µM
- TGI [23]: > 25 µM
- TGI [24]: > 25 µM
- TGI [26]: > 25 µM
- TGI [27]: > 25 µM
- TGI [28]: > 25 µM
- TGI [29]: 8.2 µM
- TGI [30]: > 22.2 µM
- TGI [31]: > 25 µM
- TGI [32]: 18.8 µM
- TGI [33]: > 25 µM
- TGI [34]: > 19.4 µM
- TGI [35]: 24.3 µM
- TGI [36]: > 25 µM
- TGI [37]: > 25 µM
- TGI [38]: > 25 µM
- TGI [39]: 2.04 µM
- TGI [40]: > 8.64 µM
- TGI [41]: > 25 µM
- TGI [42]: > 25 µM
- TGI [43]: > 25 µM
- TGI [44]: > 14.2 µM
- TGI [45]: > 7.49 µM
- TGI [46]: > 8.59 µM
- TGI [47]: > 25 µM
- TGI [48]: > 6.82 µM
- TGI [49]: 3.95 µM
- TGI [50]: > 25 µM
- TGI [51]: > 25 µM
- TGI [52]: > 9.41 µM
- TGI [59]: > 25 µM
- TGI [54]: 5.91 µM
- TGI [55]: > 8.19 µM
- TGI [56]: > 7.77 µM

Structure (SMILES): COc1ccc(CN=C2N/C(=C\c3ccccc3Cl)C(=O)N2C)cc1
- TGI [1]: 62.6 µM
- TGI [2]: 43.2 µM
- TGI [3]: > 100 µM
- TGI [4]: 96.6 µM
- TGI [5]: 59.9 µM
- TGI [6]: 39.8 µM
- TGI [7]: > 100 µM
- TGI [8]: 52.4 µM
- TGI [9]: > 100 µM
- TGI [10]: > 100 µM
- TGI [11]: > 100 µM
- TGI [12]: > 100 µM
- TGI [13]: 96.9 µM
- TGI [15]: 48.8 µM
- TGI [58]: > 100 µM
- TGI [16]: 77.9 µM
- TGI [17]: > 100 µM
- TGI [19]: 39.3 µM
- TGI [20]: 90.2 µM
- TGI [21]: 40.7 µM
- TGI [22]: > 100 µM
- TGI [23]: 44.5 µM
- TGI [24]: > 100 µM
- TGI [25]: > 100 µM
- TGI [26]: 57.2 µM
- TGI [27]: > 100 µM
- TGI [28]: > 100 µM
- TGI [29]: 72.7 µM
- TGI [30]: 86.4 µM
- TGI [31]: > 100 µM
- TGI [32]: 63.4 µM
- TGI [33]: 50.1 µM
- TGI [34]: 36.2 µM
- TGI [35]: > 100 µM
- TGI [36]: > 100 µM
- TGI [37]: 46.8 µM
- TGI [38]: 77.4 µM
- TGI [39]: 37.6 µM
- TGI [40]: > 100 µM
- TGI [41]: 38.4 µM
- TGI [42]: 52.2 µM
- TGI [43]: 90 µM
- TGI [44]: 58.8 µM
- TGI [45]: 51.1 µM
- TGI [46]: > 100 µM
- TGI [47]: 36.1 µM
- TGI [48]: > 100 µM
- TGI [50]: 43 µM
- TGI [51]: > 100 µM
- TGI [52]: 42.8 µM
- TGI [53]: > 100 µM
- TGI [59]: > 100 µM
- TGI [54]: 57.9 µM
- TGI [55]: 94.8 µM
- TGI [56]: > 100 µM
